Data: ChEMBL document CHEMBL4507263, “Data for DCP probe BAY-474” (2021)
Activity calls are given as the source filed them. No cut-off for these calls is given here.

How the values were obtained:
[1] = target: Muscarinic acetylcholine receptor M5 (Homo sapiens) (UniProt P08912); details: Compound concentration 10.0 uM
[2] = target: Beta-3 adrenergic receptor (Homo sapiens) (UniProt P13945); details: Compound concentration 10.0 uM
[3] = target: 5-hydroxytryptamine receptor 2C (Homo sapiens) (UniProt P28335); details: Compound concentration 10.0 uM
[4] = target: T1, Alpha-1D adrenergic receptor (Homo sapiens) (UniProt P25100); details: Compound concentration 10.0 uM
T1 sequence (whole entry): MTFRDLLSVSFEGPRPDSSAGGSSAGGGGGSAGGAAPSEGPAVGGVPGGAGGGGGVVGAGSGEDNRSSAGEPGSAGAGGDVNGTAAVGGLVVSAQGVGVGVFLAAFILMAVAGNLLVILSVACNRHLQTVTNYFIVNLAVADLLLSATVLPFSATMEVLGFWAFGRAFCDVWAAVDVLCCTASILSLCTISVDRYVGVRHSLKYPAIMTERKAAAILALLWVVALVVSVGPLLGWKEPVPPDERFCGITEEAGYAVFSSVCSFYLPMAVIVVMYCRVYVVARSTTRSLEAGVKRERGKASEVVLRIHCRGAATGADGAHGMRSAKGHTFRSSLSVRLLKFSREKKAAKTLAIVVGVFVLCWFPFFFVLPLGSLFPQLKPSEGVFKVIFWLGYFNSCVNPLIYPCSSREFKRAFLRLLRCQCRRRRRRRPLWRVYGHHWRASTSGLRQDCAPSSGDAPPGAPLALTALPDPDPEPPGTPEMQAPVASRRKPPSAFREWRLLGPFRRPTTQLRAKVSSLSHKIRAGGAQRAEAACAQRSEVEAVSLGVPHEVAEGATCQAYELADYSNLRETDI

[5] = target: Hepatocyte growth factor receptor (Homo sapiens, UniProt P08581); experiment: Homogeneous Time Resolved Fluorescence Assay
[6] = target: D(2) dopamine receptor (Homo sapiens) (UniProt P14416); details: Compound concentration 10.0 uM
D(1B) dopamine receptor = D(1B) dopamine receptor (Homo sapiens, UniProt P21918); details: Compound concentration 10.0 uM
[7] = target: Muscarinic acetylcholine receptor M3 (Homo sapiens) (UniProt P20309); details: Compound concentration 10.0 uM
[8] = target: 5-hydroxytryptamine receptor 3A (Homo sapiens) (UniProt P46098); details: Compound concentration 10.0 uM
[9] = target: Beta-1 adrenergic receptor (Homo sapiens) (UniProt P08588); details: Compound concentration 10.0 uM
[10] = target: Alpha-2C adrenergic receptor (Homo sapiens) (UniProt P18825); details: Compound concentration 10.0 uM
[11] = target: Sigma intracellular receptor 2 (Homo sapiens) (UniProt Q5BJF2); details: Compound concentration 10.0 uM
[12] = target: T2, D(4) dopamine receptor (Homo sapiens) (UniProt P21917); details: Compound concentration 10.0 uM
T2 sequence (whole entry): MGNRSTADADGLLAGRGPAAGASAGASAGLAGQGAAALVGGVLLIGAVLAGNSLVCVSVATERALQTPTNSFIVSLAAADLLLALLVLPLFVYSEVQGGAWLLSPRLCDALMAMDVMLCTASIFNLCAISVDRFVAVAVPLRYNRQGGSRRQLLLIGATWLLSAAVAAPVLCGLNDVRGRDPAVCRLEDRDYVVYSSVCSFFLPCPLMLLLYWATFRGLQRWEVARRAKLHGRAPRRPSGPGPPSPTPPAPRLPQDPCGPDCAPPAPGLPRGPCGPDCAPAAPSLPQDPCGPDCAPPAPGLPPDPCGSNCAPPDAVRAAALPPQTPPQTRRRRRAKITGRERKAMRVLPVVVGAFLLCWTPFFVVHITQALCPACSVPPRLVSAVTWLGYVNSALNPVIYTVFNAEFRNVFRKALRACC

[13] = target: Sigma non-opioid intracellular receptor 1 (Homo sapiens) (UniProt Q99720); details: Compound concentration 10.0 uM
[14] = target: D(1A) dopamine receptor (Homo sapiens) (UniProt P21728); details: Compound concentration 10.0 uM
[15] = target: Alpha-1B adrenergic receptor (Homo sapiens) (UniProt P35368); details: Compound concentration 10.0 uM
[16] = target: 5-hydroxytryptamine receptor 6 (Homo sapiens, UniProt P50406); details: Compound concentration 10.0 uM
[17] = target: Delta-type opioid receptor (Homo sapiens) (UniProt P41143); details: Compound concentration 10.0 uM
[18] = target: T3, 5-hydroxytryptamine receptor 1A (Homo sapiens) (UniProt P08908); details: Compound concentration 10.0 uM
T3 sequence (whole entry): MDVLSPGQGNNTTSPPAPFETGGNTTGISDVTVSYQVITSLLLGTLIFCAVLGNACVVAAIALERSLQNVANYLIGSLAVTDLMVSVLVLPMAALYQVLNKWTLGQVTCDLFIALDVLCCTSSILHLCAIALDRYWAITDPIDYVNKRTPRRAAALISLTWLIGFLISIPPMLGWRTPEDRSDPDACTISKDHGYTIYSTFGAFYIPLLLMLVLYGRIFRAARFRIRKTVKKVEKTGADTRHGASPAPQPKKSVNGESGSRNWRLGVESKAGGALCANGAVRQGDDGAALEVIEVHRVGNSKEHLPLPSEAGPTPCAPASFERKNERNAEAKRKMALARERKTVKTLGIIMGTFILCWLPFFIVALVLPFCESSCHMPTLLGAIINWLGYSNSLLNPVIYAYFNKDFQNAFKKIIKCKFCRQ

[19] = target: T4, Muscarinic acetylcholine receptor M2 (Homo sapiens) (UniProt P08172); details: Compound concentration 10.0 uM
T4 sequence (whole entry): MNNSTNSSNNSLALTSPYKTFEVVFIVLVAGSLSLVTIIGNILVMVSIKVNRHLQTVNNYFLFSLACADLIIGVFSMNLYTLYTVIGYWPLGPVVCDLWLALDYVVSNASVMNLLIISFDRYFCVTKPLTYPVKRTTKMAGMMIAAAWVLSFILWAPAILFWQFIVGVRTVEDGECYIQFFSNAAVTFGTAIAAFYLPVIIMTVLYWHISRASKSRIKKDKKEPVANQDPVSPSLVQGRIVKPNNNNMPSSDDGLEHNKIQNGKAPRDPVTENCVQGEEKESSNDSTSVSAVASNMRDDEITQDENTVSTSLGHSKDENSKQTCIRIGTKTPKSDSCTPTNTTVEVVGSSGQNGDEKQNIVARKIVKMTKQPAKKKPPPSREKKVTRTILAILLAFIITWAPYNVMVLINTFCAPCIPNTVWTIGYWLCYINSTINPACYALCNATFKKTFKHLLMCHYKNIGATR

[20] = target: Alpha-2B adrenergic receptor (Homo sapiens) (UniProt P18089); details: Compound concentration 10.0 uM
Sequence of Alpha-2B adrenergic receptor (Homo sapiens) (P18089 whole entry): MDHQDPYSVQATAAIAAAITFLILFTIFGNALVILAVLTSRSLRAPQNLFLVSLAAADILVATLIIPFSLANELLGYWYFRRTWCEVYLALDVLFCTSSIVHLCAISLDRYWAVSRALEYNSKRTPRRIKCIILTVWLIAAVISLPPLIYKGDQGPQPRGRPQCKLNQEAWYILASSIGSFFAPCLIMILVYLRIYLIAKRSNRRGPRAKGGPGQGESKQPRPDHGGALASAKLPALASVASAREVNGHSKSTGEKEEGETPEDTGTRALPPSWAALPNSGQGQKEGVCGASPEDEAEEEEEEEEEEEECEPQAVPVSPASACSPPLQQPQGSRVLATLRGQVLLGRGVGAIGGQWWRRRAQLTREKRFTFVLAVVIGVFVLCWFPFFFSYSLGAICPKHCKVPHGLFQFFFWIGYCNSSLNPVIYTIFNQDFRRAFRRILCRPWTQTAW

Sequence of 5-hydroxytryptamine receptor 6 (P50406 whole entry): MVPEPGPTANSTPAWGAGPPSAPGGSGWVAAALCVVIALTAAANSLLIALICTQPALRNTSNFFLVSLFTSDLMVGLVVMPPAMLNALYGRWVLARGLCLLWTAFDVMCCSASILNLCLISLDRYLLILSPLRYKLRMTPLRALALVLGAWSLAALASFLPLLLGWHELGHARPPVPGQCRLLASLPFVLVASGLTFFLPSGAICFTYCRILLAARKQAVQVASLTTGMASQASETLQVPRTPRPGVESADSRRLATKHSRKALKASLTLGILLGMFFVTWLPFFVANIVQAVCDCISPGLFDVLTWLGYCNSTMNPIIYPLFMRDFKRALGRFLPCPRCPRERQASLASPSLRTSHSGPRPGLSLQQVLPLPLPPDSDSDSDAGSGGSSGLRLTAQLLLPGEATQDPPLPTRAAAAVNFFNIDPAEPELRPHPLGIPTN
Sequence of Alpha-1B adrenergic receptor (Homo sapiens) (P35368 whole entry): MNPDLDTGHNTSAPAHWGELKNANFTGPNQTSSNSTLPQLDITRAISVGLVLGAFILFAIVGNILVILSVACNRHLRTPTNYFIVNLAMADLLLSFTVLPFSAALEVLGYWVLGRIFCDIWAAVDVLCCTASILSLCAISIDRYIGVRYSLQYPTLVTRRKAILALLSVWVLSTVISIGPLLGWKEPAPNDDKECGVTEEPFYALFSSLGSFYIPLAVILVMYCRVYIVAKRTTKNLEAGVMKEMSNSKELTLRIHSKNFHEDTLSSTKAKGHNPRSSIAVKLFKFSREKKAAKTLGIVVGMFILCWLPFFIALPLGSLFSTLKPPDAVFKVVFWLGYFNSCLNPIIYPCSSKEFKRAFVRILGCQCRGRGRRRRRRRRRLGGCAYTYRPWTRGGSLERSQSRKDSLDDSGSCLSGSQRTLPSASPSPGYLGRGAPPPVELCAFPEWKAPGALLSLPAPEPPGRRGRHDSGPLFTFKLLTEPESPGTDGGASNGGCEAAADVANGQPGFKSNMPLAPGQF
Sequence of Muscarinic acetylcholine receptor M3 (Homo sapiens) (P20309 whole entry, looked up): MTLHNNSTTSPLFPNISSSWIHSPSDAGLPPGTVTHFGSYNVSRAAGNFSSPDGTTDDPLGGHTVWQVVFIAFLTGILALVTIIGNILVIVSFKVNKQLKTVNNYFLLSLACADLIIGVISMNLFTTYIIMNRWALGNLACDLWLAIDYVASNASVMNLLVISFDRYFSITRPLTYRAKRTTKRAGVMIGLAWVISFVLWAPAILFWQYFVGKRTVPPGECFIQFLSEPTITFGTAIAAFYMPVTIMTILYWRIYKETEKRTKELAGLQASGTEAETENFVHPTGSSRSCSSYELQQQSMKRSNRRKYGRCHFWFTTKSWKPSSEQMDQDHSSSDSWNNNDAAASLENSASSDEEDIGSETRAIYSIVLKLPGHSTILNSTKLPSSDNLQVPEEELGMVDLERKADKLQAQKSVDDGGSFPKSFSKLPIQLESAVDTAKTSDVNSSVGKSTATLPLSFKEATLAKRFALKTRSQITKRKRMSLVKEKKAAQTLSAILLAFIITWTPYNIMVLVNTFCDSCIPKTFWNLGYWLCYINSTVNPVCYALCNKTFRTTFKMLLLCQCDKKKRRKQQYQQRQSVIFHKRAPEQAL
Sequence of Hepatocyte growth factor receptor (P08581 whole entry): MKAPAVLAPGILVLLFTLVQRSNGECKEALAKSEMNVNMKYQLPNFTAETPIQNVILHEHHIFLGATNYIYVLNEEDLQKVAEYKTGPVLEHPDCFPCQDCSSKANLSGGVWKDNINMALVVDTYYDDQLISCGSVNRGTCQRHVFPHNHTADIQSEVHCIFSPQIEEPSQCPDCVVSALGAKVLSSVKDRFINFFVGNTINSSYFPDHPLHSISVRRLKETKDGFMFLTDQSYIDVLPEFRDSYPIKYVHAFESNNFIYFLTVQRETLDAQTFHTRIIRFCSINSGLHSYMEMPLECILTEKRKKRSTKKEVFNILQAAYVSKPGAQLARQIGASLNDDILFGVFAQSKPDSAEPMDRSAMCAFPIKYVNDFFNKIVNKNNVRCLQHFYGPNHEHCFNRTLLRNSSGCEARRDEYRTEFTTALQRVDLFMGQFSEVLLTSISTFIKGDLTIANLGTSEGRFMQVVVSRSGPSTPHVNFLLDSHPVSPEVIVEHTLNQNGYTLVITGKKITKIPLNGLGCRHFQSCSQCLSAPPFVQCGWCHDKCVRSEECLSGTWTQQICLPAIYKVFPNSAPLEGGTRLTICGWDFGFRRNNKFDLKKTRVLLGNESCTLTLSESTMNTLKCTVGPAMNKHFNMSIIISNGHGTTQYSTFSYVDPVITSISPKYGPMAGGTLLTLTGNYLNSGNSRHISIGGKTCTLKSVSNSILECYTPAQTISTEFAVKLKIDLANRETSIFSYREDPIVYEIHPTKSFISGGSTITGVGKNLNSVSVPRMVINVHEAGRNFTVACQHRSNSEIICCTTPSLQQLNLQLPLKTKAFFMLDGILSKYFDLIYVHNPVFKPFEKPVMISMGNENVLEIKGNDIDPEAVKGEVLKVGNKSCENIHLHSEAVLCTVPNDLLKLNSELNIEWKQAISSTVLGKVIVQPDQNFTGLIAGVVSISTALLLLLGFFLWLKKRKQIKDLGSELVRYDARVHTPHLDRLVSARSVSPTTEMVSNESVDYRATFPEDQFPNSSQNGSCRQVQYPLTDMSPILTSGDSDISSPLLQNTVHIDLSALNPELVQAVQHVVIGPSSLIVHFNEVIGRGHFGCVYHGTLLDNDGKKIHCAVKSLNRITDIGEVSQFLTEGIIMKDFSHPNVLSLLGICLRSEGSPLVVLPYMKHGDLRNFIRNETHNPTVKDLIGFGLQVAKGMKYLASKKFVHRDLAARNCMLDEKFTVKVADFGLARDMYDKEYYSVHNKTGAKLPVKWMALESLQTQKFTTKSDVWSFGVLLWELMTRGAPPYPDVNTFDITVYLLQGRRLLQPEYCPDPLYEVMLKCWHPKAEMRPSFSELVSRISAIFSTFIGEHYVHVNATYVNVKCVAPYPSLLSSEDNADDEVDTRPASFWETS
Sequence of Delta-type opioid receptor (Homo sapiens) (P41143 whole entry): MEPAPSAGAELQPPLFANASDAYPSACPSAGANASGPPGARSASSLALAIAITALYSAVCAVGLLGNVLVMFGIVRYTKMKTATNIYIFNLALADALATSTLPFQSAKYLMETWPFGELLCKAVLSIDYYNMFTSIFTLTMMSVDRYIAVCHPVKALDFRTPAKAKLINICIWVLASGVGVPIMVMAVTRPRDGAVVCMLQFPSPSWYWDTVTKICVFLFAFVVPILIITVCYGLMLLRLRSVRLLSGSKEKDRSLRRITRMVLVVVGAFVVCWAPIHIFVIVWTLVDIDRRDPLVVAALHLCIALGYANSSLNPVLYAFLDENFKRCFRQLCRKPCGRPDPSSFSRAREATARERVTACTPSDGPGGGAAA
Sequence of Alpha-2C adrenergic receptor (Homo sapiens) (P18825 whole entry): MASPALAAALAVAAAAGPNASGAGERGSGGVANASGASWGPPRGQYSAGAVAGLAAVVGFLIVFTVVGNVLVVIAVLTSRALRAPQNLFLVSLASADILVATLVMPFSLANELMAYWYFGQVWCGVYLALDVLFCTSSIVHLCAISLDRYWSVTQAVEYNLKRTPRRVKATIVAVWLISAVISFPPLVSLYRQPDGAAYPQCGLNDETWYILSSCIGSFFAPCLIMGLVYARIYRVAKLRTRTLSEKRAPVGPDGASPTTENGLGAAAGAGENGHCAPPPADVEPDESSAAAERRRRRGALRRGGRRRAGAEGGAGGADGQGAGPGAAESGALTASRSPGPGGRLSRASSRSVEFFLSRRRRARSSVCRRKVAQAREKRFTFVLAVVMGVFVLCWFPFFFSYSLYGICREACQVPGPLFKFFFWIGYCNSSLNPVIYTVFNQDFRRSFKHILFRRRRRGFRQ
Sequence of D(2) dopamine receptor (Homo sapiens) (P14416 whole entry): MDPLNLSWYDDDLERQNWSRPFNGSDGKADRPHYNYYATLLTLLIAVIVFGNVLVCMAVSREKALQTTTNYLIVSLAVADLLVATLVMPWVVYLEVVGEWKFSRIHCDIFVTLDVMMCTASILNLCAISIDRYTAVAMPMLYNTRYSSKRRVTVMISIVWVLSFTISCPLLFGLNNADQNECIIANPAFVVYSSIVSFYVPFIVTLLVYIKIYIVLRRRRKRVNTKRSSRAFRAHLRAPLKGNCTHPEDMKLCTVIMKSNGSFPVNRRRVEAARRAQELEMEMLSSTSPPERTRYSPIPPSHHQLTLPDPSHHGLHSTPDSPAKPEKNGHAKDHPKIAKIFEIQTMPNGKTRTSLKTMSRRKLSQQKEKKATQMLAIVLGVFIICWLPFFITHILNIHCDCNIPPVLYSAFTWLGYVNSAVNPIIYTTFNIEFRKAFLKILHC
Sequence of Sigma non-opioid intracellular receptor 1 (Homo sapiens) (Q99720 whole entry): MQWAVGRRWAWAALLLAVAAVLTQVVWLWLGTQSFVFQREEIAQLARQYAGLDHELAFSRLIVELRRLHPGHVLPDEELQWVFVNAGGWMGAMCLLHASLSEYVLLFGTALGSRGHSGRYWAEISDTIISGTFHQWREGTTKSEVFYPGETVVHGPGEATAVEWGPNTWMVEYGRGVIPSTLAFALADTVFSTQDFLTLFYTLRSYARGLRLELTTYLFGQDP

SMILES | inhibition [1] | inhibition [2] | inhibition [3] | inhibition [4] | IC50 [5] | inhibition [6] | inhibition (D(1B) dopamine receptor) | inhibition [7] | inhibition [8] | inhibition [9] | inhibition [10] | inhibition [11] | inhibition [12] | inhibition [13] | inhibition [14] | inhibition [15] | inhibition [16] | inhibition [17] | inhibition [18] | inhibition [19] | also measured
CC1=C(C#N)C(c2ccc3[nH]nc(C)c3c2)C(C#N)=C(C)N1 [BAY-474] | 5.48% | 21.1% | 22.4% | 2.5% | < 0.001 µM (active) | -7.07% | 5.4% | -1.54% | 33% | 2.16% | -4.65% | 23.9% | 24% | -9.08% | 6.92% | 1.79% | 20.7% | 16.9% | -5.32% | -8.64% | inhibition [20]: 8.04%
CC1=C(C#N)[C@@H](c2ccc3[nH]nc(C)c3c2)C(C#N)=C(c2ccc(Cl)cc2)N1 [BAY-827] | 9.95% | 24.3% | 71.8% | 7.74% | 11 µM (not active) | 10.6% | 58.1% | 8.81% | 2.6% | 4.66% | -1.57% | 23.4% | 5.34% | 14.6% | 6.7% | 21.7% | 55.7% | 33.4% | 2.67% | 18.8% | inhibition [20]: 4.71%
